Laboratory results reported in patent US5767116A, “Bicyclic aromatic compounds as therapeutic agents” (Knoll Atkiengesellschaft, priority 1993, dated 1998).
Where a name gives a salt, the structure may show the parent alone. Read-outs that look alike come from different tables or passages of the source.

What was measured:
5-HT1A receptors = molecular target: T1, 5-HT1A receptors (Rattus norvegicus, UniProt P19327); assay: biochemical; assay type: binding, rat (male Charles River CD); conditions: for Ki: 25° C., 30 minutes
T1 sequence (P19327 1-422): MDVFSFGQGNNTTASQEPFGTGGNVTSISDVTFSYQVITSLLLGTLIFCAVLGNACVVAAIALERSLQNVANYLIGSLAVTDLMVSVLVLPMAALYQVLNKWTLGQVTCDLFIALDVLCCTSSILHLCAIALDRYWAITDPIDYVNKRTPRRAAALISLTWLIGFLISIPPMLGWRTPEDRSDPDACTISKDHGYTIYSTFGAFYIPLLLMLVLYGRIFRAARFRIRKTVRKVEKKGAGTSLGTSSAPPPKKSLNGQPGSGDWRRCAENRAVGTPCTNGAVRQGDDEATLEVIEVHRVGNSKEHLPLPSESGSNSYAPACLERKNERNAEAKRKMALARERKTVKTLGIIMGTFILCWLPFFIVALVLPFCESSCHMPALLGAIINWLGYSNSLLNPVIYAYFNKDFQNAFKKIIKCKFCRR
Method: The pellet was rehomogenised in the same buffer, incubated at 37° C. for 10 minutes and centrifuged at 30,000 g at 4° C. for 10 minutes. […] Aliquots (400 μl; equivalent to 2.5 mg wet weight of tissue/tube) of this suspension were added to tubes containing the ligand (50 μl; 2 nM) and distilled water (50 μl; total binding) or 5-HT (50 μl; 10 µM; non-specific binding) or test compound (50 μl; at a single concentration of 10^-6 M or at 10 concentrations ranging from 10^-11 -10^-3 M). The ligand was [^3 H]8-hydroxy-2-(dipropylamino)tetralin([^3 H]8-OH-DPAT) and the mixture was incubated at 25° C. for 30 minutes before the incubation was terminated by rapid filtration.
(§1) The filters were punched out into vials, scintillation fluid added and radioactivity determined by liquid scintillation counting. The percentage displacement of specific binding of the tritiated ligand was calculated for the single concentration (10^-6 M) of test compound. Displacement curves were then produced for those compounds which displaced ≥50% of specific binding of the tritiated ligand at 10^-6 M using a range of concentrations of the compound. […] The inhibition coefficient Ki was then calculated using the formula [formula] in which [ligand] is the concentration of the tritiated ligand used and KD is the equilibrium dissociation constant for the ligand.

α1-adrenoceptors = assay: inhibition of tritiated ligand ([7-methoxy-^3 H]prazosin) binding to α1-adrenoceptors in vitro (whole cortical tissue); design: species or system rat (male Charles River CD); conditions: rat whole cortical tissue; for % displacement at 10^-6 M, α1: 30 min, 1 µM; for Ki: 30° C., 30 minutes, > from highest concentration which displaced ≤50% of the ligand
Method: The supernatant was centrifuged at 30,000 g at 4° C. for 10 minutes. […] Aliquots (400 μl; equivalent to 5 mg wet weight of tissue/tube) of this suspension were added to tubes containing the ligand (50 μl; 0.1 nM) and distilled water (50 μl; total binding) or phentolamine (50 μl; 5 μM; non-specific binding) or test compound (50 μl; at a single concentration of 10^-6 M or at 10 concentrations ranging from 10^-11 -10^-3 M). The ligand was [7-methoxy-^3 H]prazosin and the mixture was incubated at 30° C. for 30 minutes before the incubation was terminated by rapid filtration.
as §1

α2-adrenoceptors = molecular target: T2, α2-adrenoceptors (Rattus norvegicus, UniProt P22909); assay: inhibition of tritiated ligand (tritiated idazoxan) binding to α2-adrenoceptors in vitro (frontal cortical tissue); design: species or system rat (male Charles River CD); conditions: for Ki: 0° C., 75 minutes, > from highest concentration which displaced ≤50% of the ligand
T2 sequence (P22909 1-465): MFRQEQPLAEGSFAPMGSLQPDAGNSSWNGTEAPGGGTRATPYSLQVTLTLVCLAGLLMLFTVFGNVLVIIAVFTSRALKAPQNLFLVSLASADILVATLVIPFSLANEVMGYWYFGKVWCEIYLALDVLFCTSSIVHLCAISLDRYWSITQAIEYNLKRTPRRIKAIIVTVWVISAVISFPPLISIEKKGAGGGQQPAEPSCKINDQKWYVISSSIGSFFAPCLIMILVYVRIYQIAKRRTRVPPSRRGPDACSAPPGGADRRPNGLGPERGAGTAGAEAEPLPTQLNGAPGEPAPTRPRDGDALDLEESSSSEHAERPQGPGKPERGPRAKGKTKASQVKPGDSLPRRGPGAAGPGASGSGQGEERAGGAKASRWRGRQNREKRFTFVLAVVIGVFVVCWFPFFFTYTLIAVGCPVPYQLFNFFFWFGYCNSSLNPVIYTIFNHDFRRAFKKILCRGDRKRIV
Method: Frontal cortical tissue from the brains of male Charles River CD rats weighing between 150-250 g were homogenised in ice-cold 0.25M sucrose (1:30 w/v) and centrifuged at 1,000 g at 4° C. for 12 minutes. The supernatant was stored on ice and the pellet was rehomogenised in 0.25M sucrose (1:15 w/v) and centrifuged at 850 g at 4° C. for 12 minutes. Combined supernatants were diluted with 5 mM Tris-HCl (pH 7.5) containing 0.5M ethylenediamine tetraacetic acid (EDTA) readjusted to pH 7.5 (at 25° C.) with 1M sodium hydroxide to 1:80 w/v, and centrifuged at 30,000 g at 4° C. for 10 minutes. The resulting pellet was resuspended in 5 mM Tris-HCl (pH 7.5) containing 5.68 mM L-ascorbic acid and 5 mM EDTA readjusted to pH 7.5 (at 25° C.) with 1M sodium hydroxide, and centrifuged at 30,000 g for 10 minutes. The final pellet was resuspended in 50 mM Tris-HCl (pH 7.5) containing 5.68 mM L-ascorbic acid and 5 mM EDTA (equivalent to 12.5 mg wet weight of tissue/ml) and used immediately in the binding assay. Aliquots (400 μl; equivalent to 5 mg wet weight of tissue/tube) of this suspension were added to tubes containing the ligand (50 μl; 1 nM) and distilled water (50 μl; total binding) or phentolamine (50 μl; 5 μM; non-specificbinding) or test compound (50 μl; at a single concentration of 10^-6 M or at 10 concentrations ranging from 10^-11 -10^-3 M). The ligand was tritiated idazoxan ((1,4-[6,7(n)-^3 H]benzodioxan-2-yl)-2-imidazoline hydrochloride) and the mixture was incubated at 0° C. for 75 minutes before the incubation was terminated by rapid filtration.
as §1, with “The filters were washed with ice-cold Tris-HCl buffer and dried. The filters” for “The filters”

D2 dopamine receptors = D2 dopamine receptors (Rattus norvegicus, UniProt P61169); assay: biochemical; assay type: binding, rat (male Charles River CD); conditions: rat striatal tissue, tritiated (S)-sulpiride, 4° C., 40 minutes
[1] = 10^-6 M, rat hippocampal tissue, [^3 H]8-OH-DPAT, read-out: % displacement at 10^-6 M, 5-HT1A
[2] = 10^-6 M, rat frontal cortical tissue, tritiated idazoxan, read-out: % displacement at 10^-6 M, α2
[3] = read-out: % displacement at 10^-6 M, 5-HT1A, 10^-6 M, rat hippocampal tissue, [^3 H]8-OH-DPAT
[4] = read-out: % displacement at 10^-6 M, α2, 10^-6 M, rat frontal cortical tissue, tritiated idazoxan
[5] = rat hippocampal tissue, [^3 H]8-OH-DPAT
[6] = rat frontal cortical tissue, tritiated idazoxan

Sequence of D2 dopamine receptors (P61169 whole entry): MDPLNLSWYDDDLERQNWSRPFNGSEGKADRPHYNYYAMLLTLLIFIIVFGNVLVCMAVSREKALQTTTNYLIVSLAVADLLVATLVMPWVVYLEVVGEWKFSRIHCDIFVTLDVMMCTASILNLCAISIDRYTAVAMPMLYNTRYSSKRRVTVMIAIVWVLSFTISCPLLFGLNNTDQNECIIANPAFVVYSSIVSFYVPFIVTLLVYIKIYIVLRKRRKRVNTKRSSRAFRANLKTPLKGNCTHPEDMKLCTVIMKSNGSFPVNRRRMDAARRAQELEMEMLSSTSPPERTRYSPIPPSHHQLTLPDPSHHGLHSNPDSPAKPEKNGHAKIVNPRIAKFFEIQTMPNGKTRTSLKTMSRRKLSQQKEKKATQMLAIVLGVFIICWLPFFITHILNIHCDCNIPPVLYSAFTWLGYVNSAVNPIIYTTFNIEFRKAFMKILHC

| inhibition at 1 µM (5-HT1A receptors; [1]) [%] | Ki (5-HT1A receptors; [5]) [nM] | Ki (D2 dopamine receptors) [nM] | Ki (α1-adrenoceptors) [nM] | Ki (α2-adrenoceptors; [6]) [nM] | Structure (SMILES) | % displacement at 10^-6 M, α1 (α1-adrenoceptors) [%] | inhibition at 1 µM (α2-adrenoceptors; [2]) [%] | inhibition at 1 µM (5-HT1A receptors; [3]) [%] | inhibition at 1 µM (α2-adrenoceptors; [4]) [%] |
| --- | --- | --- | --- | --- | --- | --- | --- | --- | --- |
| – | – | – | – | – | Cl.Cl.c1ccc(N2CCC(CNCC3COc4ccccc4O3)CC2)nc1 (single isomer, unassigned; (-)) [Example 19, (-)-N-(1,4-benzodioxan-2-ylmethyl)-1-[1-(pyrid-2-yl)piperid-4-yl]methylamine dihydrochloride] | 98 | – | 98 | 96 |
| – | 14 | 15.6 | 23.9 | 31 | c1ccc2c(c1)OCC(CNCC1CCN(c3cnccn3)CC1)O2 (centres unmarked) [Example 1, N-(1,4-benzodioxan-2-ylmethyl)-1-[1-(pyrazin-2-yl)piperid-4-yl]methylamine1.4 hydrochloride] | – | – | – | – |
| – | 7.7 | 19 | 78 | 394 | COc1ccccc1N1CCC(CNCC2COc3ccccc3O2)CC1 (centres unmarked) [Example 2, N-(1,4-benzodioxan-2-ylmethyl)-1-[1-(2-methoxyphenyl)piperid-4-yl]methylamine dihydrochloride] | – | – | – | – |
| – | 1.9 | 45.3 | 38 | 86 | Clc1cccnc1N1CCC(CNCC2COc3ccccc3O2)CC1 (centres unmarked) [Example 3, N-(1,4-benzodioxan-2-ylmethyl)-1-[1-(3-chloropyrid-2-yl)piperid-4-yl]methylamine 1.4 hydrochloride] | – | – | – | – |
| – | 3.8 | 35.8 | 13 | 30 | c1ccc2c(c1)OCC(CNCC1CCN(c3ncnc4ccccc34)CC1)O2 (centres unmarked) [Example 4, N-(1,4-benzodioxan-2-ylmethyl)-1-[1-(quinazolin-4-yl)piperid-4-yl]methylamine dihydrochloride] | – | – | – | – |
| 96 | – | – | – | – | COc1ccccc1N1CCC(CNC[C@H]2COc3ccccc3O2)CC1 [Example 7, (S)-(-)-N-(1,4-benzodioxan-2-ylmethyl)-1-[1-(2-methoxyphenyl)-piperid-4-yl]methylamine] | 94 | 72 | – | – |
| – | – | – | – | – | Cl.Cl.c1ccc(N2CCC(CNCC3COc4ccccc4O3)CC2)cc1 (centres unmarked) [Example 12, N-(1,4-benzodioxan-2-ylmethyl)-1-(1-phenylpiperid-4-yl)methylamine dihydrochloride] | 89 | – | 97 | 66 |
| – | – | – | – | – | Cl.Cl.c1ccc2c(c1)OCC(CNCC1CCN(c3cccc4c3OCCO4)CC1)O2 (centres unmarked) [Example 13, N-(1,4-benzodioxan-2-ylmethyl)-1-[1-(1,4-benzodioxan-5-yl)piperid-4-yl]methylamine dihydrochloride] | 93 | – | 100 | 66 |
| 87 | – | – | – | > 500 | COc1ccccc1N1CCC(CNC[C@@H]2COc3ccccc3O2)CC1 [Example 14, (R)-(+)-N-(1,4-benzodioxan-2-ylmethyl)-1-[1-(2-methoxyphenyl)piperid-4-yl]methylamine] | 57 | – | – | – |
| – | – | – | – | – | COc1ccccc1NCC1CCN(CC2COc3ccccc3O2)CC1.O=C(O)C(=O)O (centres unmarked) [Example 15, 1-[1-(1,4-benzodioxan-2-ylmethyl)piperid-4-yl]-N-(2-methoxyphenyl)methylamine mono-oxalate] | 94 | – | 97 | 94 |
| – | – | – | – | – | COc1ccc(N2CCC(CNCC3COc4ccccc4O3)CC2)cc1.Cl.Cl (centres unmarked) [Example 16, N-(1,4-benzodioxan-2-ylmethyl)-1-[1-(4-methoxyphenyl)piperid-4-yl]methylamine dihydrochloride] | 94 | – | 98 | 64 |
| 94 | – | – | > 500 | > 500 | COc1ccccc1N1CCC(CNCC2COc3cccc(O)c3O2)CC1 (centres unmarked) [Example 28, N-(8-hydroxy-1,4-benzodioxan-2-ylmethyl) -1-[1-(2-methoxyphenyl)piperid-4-yl]methylamine] | – | – | – | – |

| Structure (SMILES) | inhibition at 1 µM (5-HT1A receptors; [1]) [%] | Ki (5-HT1A receptors; [5]) [nM] | Ki (D2 dopamine receptors) [nM] | Ki (α1-adrenoceptors) [nM] | Ki (α2-adrenoceptors; [6]) [nM] | % displacement at 10^-6 M, α1 (α1-adrenoceptors) [%] | inhibition at 1 µM (α2-adrenoceptors; [2]) [%] | inhibition at 1 µM (5-HT1A receptors; [3]) [%] | inhibition at 1 µM (α2-adrenoceptors; [4]) [%] |
| --- | --- | --- | --- | --- | --- | --- | --- | --- | --- |
| c1ccc(N2CCC(CNCC3COc4ccccc4O3)CC2)nc1 (single isomer, unassigned; (+)) [Example 20, (+)-N-(1,4-benzodioxan-2-ylmethyl)-1-[1-pyrid-2-yl)piperid-4-yl]methylamine dihydrochloride] | 82 | – | – | – | – | 94 | 91 | – | – |
| c1ccc(N2CCC(CNCC3COc4ccccc4O3)CC2)nc1 (centres unmarked) [Example 5, N-(1,4-benzodioxan-2-ylmethyl)-1-[1-(pyrid-2-yl)piperid-4-yl]methylamine dihydrochloride] | – | 22.6 | 29 | 79 | 50 | – | – | – | – |
| COc1ccccc1N1CCC(CNCC2COc3cccc(OC)c3O2)CC1 (centres unmarked) [Example 6, N-(8-methoxy-1,4-benzodioxan-2-ylmethyl)-1-[1-(2-methoxyphenyl)piperid-4-yl]methylamine dihydrochloride] | – | 252 | 8.5 | 3.7 | – | – | – | – | 92 |
| COc1cccc(N2CCC(CNCC3COc4ccccc4O3)CC2)c1 (centres unmarked) [Example 18, N-(1,4-benzodioxan-2-ylmethyl)-1-[1-(3-methoxyphenyl)piperid-4-yl]methylamine hydrochloride] | – | 7 | – | – | 242 | – | – | – | – |
